pIC50: −log10 of the molar value.
What follows are molecules tested on HIF-2α HIS TAG-PASB Domain (assay: HIF-2α Scintillation Proximity Assay (SPA)).
Type: binding
Description: The percent inhibition was determined and IC50 values were calculated using the Dotmatics system based on the following equation: % inhibition=[(high control−sample)/(high control−low control)]×100.

| pIC50 | SMILES |
| --- | --- |
| 7.82 | N#Cc1c(S(=O)(=O)C(F)(F)F)ccc(Oc2cc(F)cc(Cl)c2)c1Br [Compound 98, 2-Bromo-3-(3-chloro-5-fluorophenoxy)-6-((trifluoromethyl)sulfonyl)benzonitrile] |
| 7.03 | N#Cc1cc(F)cc(Oc2ccc(S(=O)(=O)C(F)(F)F)c(C#N)c2Br)c1 [Compound 100, 2-Bromo-3-(3-cyano-5-fluorophenoxy)-6-((trifluoromethyl)sulfonyl)benzonitrile] |
| 7.59 | O=Cc1c(S(=O)(=O)C(F)(F)F)ccc(Oc2cc(F)cc(Cl)c2)c1Br [Compound 101, 2-Bromo-3-(3-chloro-5-fluorophenoxy)-6-((trifluoromethyl)sulfonyl)benzaldehyde] |
| 6.92 | O=S(=O)(c1ccc(Oc2cc(F)cc(Cl)c2)c(Br)c1CO)C(F)(F)F [Compound 102, (2-Bromo-3-(3-chloro-5-fluorophenoxy)-6-((trifluoromethyl)sulfonyl)phenyl)methanol] |
| 6.52 | CC(O)c1c(S(=O)(=O)C(F)(F)F)ccc(Oc2cc(F)cc(Cl)c2)c1Br (stereo not drawn) [Compound 103, 1-(2-Bromo-3-(3-chloro-5-fluorophenoxy)-6-((trifluoromethyl)sulfonyl)phenyl)ethan-1-ol] |
| 6.57 | CC(=O)c1c(S(=O)(=O)C(F)(F)F)ccc(Oc2cc(F)cc(Cl)c2)c1Br [Compound 104, 1-(2-Bromo-3-(3-chloro-5-fluorophenoxy)-6-((trifluoromethyl)sulfonyl)phenyl)ethan-1-one] |
| 4.92 | N#Cc1c(Oc2cc(F)cc(Cl)c2)ccc(S(=O)(=O)C(F)(F)F)c1C(=O)O [Compound 105, 3-(3-Chloro-5-fluorophenoxy)-2-cyano-6-((trifluoromethyl)sulfonyl)benzoic acid] |
| 6.00 | CC(=NO)c1c(S(=O)(=O)C(F)(F)F)ccc(Oc2cc(F)cc(Cl)c2)c1Br [Compound 106, 1-(2-Bromo-3-(3-chloro-5-fluorophenoxy)-6-((trifluoromethyl)sulfonyl)phenyl)ethan-1-one oxime] |
| 6.80 | O=S(=O)(c1ccc(Oc2cc(F)cc(Cl)c2)c(Br)c1C=NO)C(F)(F)F [Compound 107, 2-Bromo-3-(3-chloro-5-fluorophenoxy)-6-((trifluoromethyl)sulfonyl)benzaldehyde oxime] |
| 5.24 | O=S(=O)(c1ccc(Oc2cc(F)cc(Cl)c2)c(Br)c1CNCCO)C(F)(F)F [Compound 108, 2-((2-Bromo-3-(3-chloro-5-fluorophenoxy)-6-((trifluoromethyl)sulfonyl)benzyl)amino)ethan-1-ol] |
| 5.68 | CNCc1c(S(=O)(=O)C(F)(F)F)ccc(Oc2cc(F)cc(Cl)c2)c1Br [Compound 109, 1-(2-Bromo-3-(3-chloro-5-fluorophenoxy)-6-((trifluoromethyl)sulfonyl)phenyl)-N-methylmethanamine] |
| 5.80 | O=S(=O)(c1ccc(Oc2cc(F)cc(Cl)c2)c(Br)c1CNCc1ccccc1)C(F)(F)F [Compound 110, N-Benzyl-1-(2-bromo-3-(3-chloro-5-fluorophenoxy)-6-((trifluoromethyl)sulfonyl)phenyl)methanamine] |
| 7.82 | N#Cc1c(S(=O)(=O)C(F)(F)F)ccc(Oc2cc(F)cc(Cl)c2)c1Cl [Compound 111, 2-Chloro-3-(3-chloro-5-fluorophenoxy)-6-((trifluoromethyl)sulfonyl)benzonitrile] |
| 7.40 | O=Cc1c(S(=O)(=O)C(F)(F)F)ccc(Oc2cc(F)cc(Cl)c2)c1Cl [Compound 112, 2-Chloro-3-(3-chloro-5-fluorophenoxy)-6-((trifluoromethyl)sulfonyl)benzaldehyde] |
| 5.64 | CNCc1c(S(=O)(=O)C(F)(F)F)ccc(Oc2cc(F)cc(Cl)c2)c1Cl [Compound 113, 1-(2-Chloro-3-(3-chloro-5-fluorophenoxy)-6-((trifluoromethyl)sulfonyl)phenyl)-N-methylmethanamine] |
| 5.96 | O=S(=O)(c1ccc(Oc2cc(F)cc(Cl)c2)c(Cl)c1CNCCF)C(F)(F)F [Compound 114, N-(2-Chloro-3-(3-chloro-5-fluorophenoxy)-6-((trifluoromethyl)sulfonyl)benzyl)-2-fluoroethan-1-amine] |
| 6.68 | N#Cc1cccc(Oc2ccc(S(=O)(=O)C(F)(F)F)cc2Br)c1 [Compound 117, 3-(2-Bromo-4-((trifluoromethyl)sulfonyl)phenoxy)benzonitrile] |
| 6.80 | N#Cc1cc(F)cc(Oc2ccc(S(=O)(=O)C(F)(F)F)cc2Br)c1 [Compound 118, 3-(2-Bromo-4-((trifluoromethyl)sulfonyl)phenoxy)-5-fluorobenzonitrile] |
| 6.47 | N#Cc1cc(F)cc(Oc2ccc(S(=O)(=O)C(F)(F)F)cc2C#N)c1 [Compound 120, 2-(3-Cyano-5-fluorophenoxy)-5-((trifluoromethyl)sulfonyl)benzonitrile] |
| 5.55 | O=S(=O)(c1ccc(Oc2cc(F)cc(Cl)c2)c(CCO)c1)C(F)(F)F [Compound 127, 2-[2-(3-Chloro-5-fluoro-phenoxy)-5-(trifluoromethylsulfonyl)phenyl]ethanol] |
| 5.66 | O=S(=O)(c1cc(C(F)(F)F)ccc1Oc1cc(F)cc(Cl)c1)C(F)(F)F [Compound 129, 1-(3-Chloro-5-fluorophenoxy)-4-(trifluoromethyl)-2-((trifluoromethyl)sulfonyl)benzene] |

Second part, the molecule before the results:

| SMILES | pIC50 |
| --- | --- |
| N#Cc1cc(F)cc(Oc2ccc(S(=O)(=O)C(F)F)c(C#N)c2Br)c1 [Compound 77, 2-Bromo-3-(3-cyano-5-fluorophenoxy)-6-((difluoromethyl)sulfonyl)benzonitrile] | 5.72 |
| CC(=O)c1c(S(=O)(=O)C(F)(F)F)ccc(Oc2cc(F)cc(C#N)c2)c1C#N [Compound 79, 2-Acetyl-6-(3-cyano-5-fluorophenoxy)-3-((trifluoromethyl)sulfonyl)benzonitrile] | 5.89 |
| N#Cc1cc(F)cc(Oc2ccc(S(=O)(=O)C(F)F)c(CO)c2Br)c1 [Compound 80, 3-(2-Bromo-4-((difluoromethyl)sulfonyl)-3-(hydroxymethyl)phenoxy)-5-fluorobenzonitrile] | 7.66 |
| N#Cc1cccc(Oc2ccc(S(=O)(=O)C(F)F)c(CO)c2Br)c1 [Compound 81, 3-(2-Bromo-4-((difluoromethyl)sulfonyl)-3-(hydroxymethyl)phenoxy)benzonitrile] | 6.54 |
| COC(=O)c1c([S+]([O-])C(F)F)ccc(Oc2cc(F)cc(Cl)c2)c1Br (stereo not drawn) [Compound 82, Methyl 2-bromo-3-(3-chloro-5-fluorophenoxy)-6-((difluoromethyl)sulfinyl)benzoate] | 4.82 |
| CC(C)(C)OC(=O)NCc1c(S(=O)(=O)C(F)F)ccc(Oc2cc(F)cc(Cl)c2)c1Br [Compound 83, tert-butyl (2-bromo-3-(3-chloro-5-fluorophenoxy)-6-((difluoromethyl)sulfonyl)benzyl)carbamate] | 5.49 |
| NCc1c(S(=O)(=O)C(F)F)ccc(Oc2cc(F)cc(Cl)c2)c1Br [Compound 85, (2-Bromo-3-(3-chloro-5-fluorophenoxy)-6-((difluoromethyl)sulfonyl)phenyl)methanamine] | 5.54 |
| CC(=O)NCc1c(S(=O)(=O)C(F)F)ccc(Oc2cc(F)cc(Cl)c2)c1Br [Compound 86, N-(2-Bromo-3-(3-chloro-5-fluorophenoxy)-6-((difluoromethyl)sulfonyl)benzyl)acetamide] | 4.15 |
| O=S(=O)(c1ccc(Oc2cccc(C(F)(F)F)c2)c(Br)c1CO)C(F)F [Compound 89, (2-Bromo-6-((difluoromethyl)sulfonyl)-3-(3-(trifluoromethyl)phenoxy)phenyl)methanol] | 5.85 |
| CS(=O)(=O)c1ccc(Oc2cc(F)cc(Cl)c2)c2c1C(O)CC2 (stereo not drawn) [Compound 90, 4-(3-Chloro-5-fluorophenoxy)-7-(methylsulfonyl)-2,3-dihydro-1H-inden-1-ol] | 6.64 |
| CCS(=O)(=O)c1ccc(Oc2cc(F)cc(Cl)c2)c2c1C(O)CC2 (stereo not drawn) [Compound 91, 4-(3-Chloro-5-fluorophenoxy)-7-(ethylsulfonyl)-2,3-dihydro-1H-inden-1-ol] | 6.55 |
| CS(=O)(=O)c1ccc(Oc2cc(F)cc(Cl)c2)c(C(F)F)c1C#N [Compound 92, 3-(3-Chloro-5-fluorophenoxy)-2-(difluoromethyl)-6-(methylsulfonyl)benzonitrile] | 7.43 |
| CS(=O)(=O)c1ccc(Oc2cc(F)cc(F)c2)c(C(F)F)c1C#N [Compound 93, 2-(Difluoromethyl)-3-(3,5-difluorophenoxy)-6-(methylsulfonyl)benzonitrile] | 6.77 |
| CS(=O)(=O)c1ccc(Oc2cc(F)cc(C#N)c2)c(C(F)F)c1C#N [Compound 94, 3-(3-Cyano-5-fluorophenoxy)-2-(difluoromethyl)-6-(methylsulfonyl)benzonitrile] | 6.89 |
| CS(=O)(=O)c1ccc(Oc2cc(F)cc(C#N)c2)c2c1C(O)CCC2 (stereo not drawn) [Compound 95, 3-Fluoro-5-((5-hydroxy-4-(methylsulfonyl)-5,6,7,8-tetrahydronaphthalen-1-yl)oxy)benzonitrile] | 5.44 |
| N#Cc1c(I)ccc(Oc2cc(F)cc(Cl)c2)c1Br [Compound 96, 2-Bromo-3-(3-chloro-5-fluorophenoxy)-6-iodobenzonitrile] | 5.51 |
| Fc1cc(Cl)cc(Oc2ccc(C(F)(F)F)c(Cl)c2Br)c1 [Compound 97, 2-Bromo-3-chloro-1-(3-chloro-5-fluorophenoxy)-4-(trifluoromethyl)benzene] | 5.66 |
| COC(=O)c1cc(S(=O)(=O)C(F)(F)F)ccc1Oc1cc(F)cc(Cl)c1 [Compound 121, Methyl 2-(3-chloro-5-fluorophenoxy)-5-((trifluoromethyl)sulfonyl)benzoate] | 4.80 |
| O=S(=O)(c1ccc(Oc2cc(F)cc(Cl)c2)c(CO)c1)C(F)(F)F [Compound 122, (2-(3-Chloro-5-fluorophenoxy)-5-((trifluoromethyl)sulfonyl)phenyl)methanol] | 5.77 |
| O=Cc1cc(S(=O)(=O)C(F)(F)F)ccc1Oc1cc(F)cc(Cl)c1 [Compound 123, 2-(3-Chloro-5-fluorophenoxy)-5-((trifluoromethyl)sulfonyl)benzaldehyde] | 7.49 |
| NC(=O)c1cc(S(=O)(=O)C(F)(F)F)ccc1Oc1cc(F)cc(Cl)c1 [Compound 125, 2-(3-Chloro-5-fluorophenoxy)-5-((trifluoromethyl)sulfonyl)benzamide] | 5.10 |

Reference: patent US9896418B2, “Aryl ethers and uses thereof” (Peloton Therapeutics, Inc., priority 2013, dated 2018)
